In ChEMBL document CHEMBL1138130, “Synthesis and antibacterial activity of 3-O-acyl-6-O-carbamoyl erythromycin A derivatives” (2006):
Converted amounts (≈) assume the structure as drawn.

Experiments:
Format in all cases: functional
Haemophilus influenzae = assay: Antibacterial activity against Haemophilus influenzae OC4882
Streptococcus pneumoniae [1] = assay: Antibacterial activity against Mef(A) efflux pump containing Streptococcus pneumoniae OC4438
Staphylococcus aureus = assay: Antibacterial activity against Staphylococcus aureus OC4172
Streptococcus pneumoniae [2] = assay: Antibacterial activity against Streptococcus pneumoniae OC9132
Streptococcus pneumoniae [3] = assay: Antibacterial activity against erm(B) ribosomal methylase gene containing Streptococcus pneumoniae OC4051

| SMILES | MIC (Haemophilus influenzae) [µg/mL] | MIC (Streptococcus pneumoniae [1]) [µg/mL] | MIC (Staphylococcus aureus) [µg/mL] | MIC (Streptococcus pneumoniae [2]) [µg/mL] | MIC (Streptococcus pneumoniae [3]) [µg/mL] |
| --- | --- | --- | --- | --- | --- |
| CC[C@H]1OC(=O)[C@H](C)[C@@H](OC(=O)N(CC)CC)[C@H](C)[C@@H](O[C@@H]2O[C@H](C)C[C@H](N(C)C)[C@H]2O)[C@](C)(OC(=O)NC/C=C/c2ccc(-c3ncccn3)cc2)C[C@@H](C)C(=O)[C@H](C)[C@H]2NC(=O)O[C@@]21C | 8 (≈ 8.54 µM) | 0.06 (≈ 0.064 µM) | 0.5 (≈ 0.534 µM) | 0.06 (≈ 0.064 µM) | 0.12 (≈ 0.128 µM) |
| CC[C@H]1OC(=O)[C@H](C)[C@@H](OC(=O)N(C)C)[C@H](C)[C@@H](O[C@@H]2O[C@H](C)C[C@H](N(C)C)[C@H]2O)[C@](C)(OC(=O)NC/C=C/c2ccc(-c3ncccn3)cc2)C[C@@H](C)C(=O)[C@H](C)[C@H]2NC(=O)O[C@@]21C | 8 (≈ 8.8 µM) | 0.06 (≈ 0.066 µM) | 0.25 (≈ 0.275 µM) | 0.03 (≈ 0.033 µM) | 0.25 (≈ 0.275 µM) |
| CC[C@H]1OC(=O)[C@H](C)[C@@H](OC(=O)NC2CCCCC2)[C@H](C)[C@@H](O[C@@H]2O[C@H](C)C[C@H](N(C)C)[C@H]2O)[C@](C)(OC(=O)NC/C=C/c2ccc(-c3ncccn3)cc2)C[C@@H](C)C(=O)[C@H](C)[C@H]2NC(=O)O[C@@]21C | 16 (≈ 16.6 µM) | 0.25 (≈ 0.26 µM) | 1 (≈ 1.04 µM) | 0.12 (≈ 0.125 µM) | 4 (≈ 4.15 µM) |
| CC[C@H]1OC(=O)[C@H](C)[C@@H](O[C@H]2C[C@@](C)(OC)[C@@H](O)[C@H](C)O2)[C@H](C)[C@@H](O[C@@H]2O[C@H](C)C[C@H](N(C)C)[C@H]2O)[C@](C)(O)C[C@@H](C)C(=O)[C@H](C)[C@@H](O)[C@]1(C)O [ERYTHROMYCIN] | 8 (≈ 10.9 µM) | 4 (≈ 5.45 µM) | 0.5 (≈ 0.681 µM) | 0.06 (≈ 0.0818 µM) | > 16 |
| CC[C@H]1OC(=O)[C@H](C)C(=O)[C@H](C)[C@@H](O[C@@H]2O[C@H](C)C[C@H](N(C)C)[C@H]2O)[C@](C)(OC)C[C@@H](C)C(=O)[C@H](C)[C@H]2N(CCCCn3cnc(-c4cccnc4)c3)C(=O)O[C@]12C [TELITHROMYCIN] | 2 (≈ 2.46 µM) | 0.25 (≈ 0.308 µM) | 0.25 (≈ 0.308 µM) | 0.03 (≈ 0.0369 µM) | 0.06 (≈ 0.0739 µM) |
